Source: patent publication US20090105266A1, “Organic compounds” (priority 2007, published 2009)

target: T1, mGluR5 (Homo sapiens, UniProt P41594); assay: inhibition of the glutamate (agonist) induced elevation of the inositol phosphate turnover; assay type: cell-based; details: inhibition of glutamate induced elevation of inositol phosphate turnover at 0.1 μM
T1 construct: expressed in transfected cells
Excerpt: This can be determined in vitro for example at recombinant human metabotropic glutamate receptors, especially PLC-coupled subtypes thereof such as mGluR5, using different procedures like, for example, measurement of the inhibition of the agonist induced elevation of intracellular Ca^2+ concentration in accordance with L. P. Daggett et al., Neuropharm. Vol. 34, pages 871-886 (1995), P. J. Flor et al., J. Neurochem. Vol. 67, pages 58-63 (1996) or by determination to what extent the agonist induced elevation of the inositol phosphate turnover is inhibited as described by T. Knoepfel et al., Eur. J. Pharmacol. Vol. 288, pages 389-392 (1994), L. P. Daggett et al., Neuropharm. Vol. 67, pages 58-63 (1996) and references cited therein. Isolation and expression of human mGluR subtypes are described in U.S. Pat. No. 5,521,297. Selected agents of the invention show IC50 values for the inhibition of the agonist (e.g. glutamate or quisqualate) induced elevation of intracellular Ca2+ concentration or the agonist (e.g. glutamate or quisqualate) induced inositol phosphate turnover, measured in recombinant cells expressing hmGluR^5a of about 0.1 nM to about 50 μM.
Activity of compounds of the present invention was examined by determination to what extent the agonist induced elevation of the inositol phosphate turnover is inhibited as described by T. Knoepfel et al., Eur. J. Pharmacol. Vol. 288, pages 389-392 (1994), L. P. Daggett et al., Neuropharm. Vol. 67, pages 58-63 (1996) and references cited therein.
The table below represents percentages of inhibition of the glutamate induced elevation of the inositol phosphate turnover at a concentration of 0.1 μM.

T1 sequence (P41594 21-1180 isoform P41594-2 limits assumed): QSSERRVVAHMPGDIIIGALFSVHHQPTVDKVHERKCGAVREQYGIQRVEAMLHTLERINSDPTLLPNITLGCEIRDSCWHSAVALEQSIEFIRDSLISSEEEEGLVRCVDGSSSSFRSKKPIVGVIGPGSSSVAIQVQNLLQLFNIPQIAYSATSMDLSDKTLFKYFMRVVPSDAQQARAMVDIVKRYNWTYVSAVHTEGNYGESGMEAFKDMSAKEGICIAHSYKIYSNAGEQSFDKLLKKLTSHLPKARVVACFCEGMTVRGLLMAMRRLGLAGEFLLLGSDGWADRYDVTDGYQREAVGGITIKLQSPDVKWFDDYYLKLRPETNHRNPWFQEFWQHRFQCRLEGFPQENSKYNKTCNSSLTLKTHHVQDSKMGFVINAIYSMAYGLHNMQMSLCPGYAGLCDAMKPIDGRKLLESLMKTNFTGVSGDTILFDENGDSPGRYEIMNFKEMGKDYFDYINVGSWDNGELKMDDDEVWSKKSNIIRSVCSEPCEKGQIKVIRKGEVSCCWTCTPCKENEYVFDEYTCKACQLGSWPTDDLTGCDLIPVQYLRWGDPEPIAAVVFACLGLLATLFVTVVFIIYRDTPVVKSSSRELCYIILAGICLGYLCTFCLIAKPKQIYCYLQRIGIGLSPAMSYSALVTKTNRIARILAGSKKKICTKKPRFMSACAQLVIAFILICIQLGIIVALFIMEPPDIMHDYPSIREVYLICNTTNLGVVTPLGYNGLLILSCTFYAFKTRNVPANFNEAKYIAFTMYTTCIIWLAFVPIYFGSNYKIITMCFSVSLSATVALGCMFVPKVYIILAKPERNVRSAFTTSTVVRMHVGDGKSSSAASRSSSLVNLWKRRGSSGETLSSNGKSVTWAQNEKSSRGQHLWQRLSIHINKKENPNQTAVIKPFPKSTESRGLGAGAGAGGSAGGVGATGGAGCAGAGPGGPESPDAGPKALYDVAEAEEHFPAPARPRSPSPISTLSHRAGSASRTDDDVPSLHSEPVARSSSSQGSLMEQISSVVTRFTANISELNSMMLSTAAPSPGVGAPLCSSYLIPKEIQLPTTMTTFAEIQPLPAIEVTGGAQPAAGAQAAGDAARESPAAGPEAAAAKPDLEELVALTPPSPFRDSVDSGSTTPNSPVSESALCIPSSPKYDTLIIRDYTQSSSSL

SMILES | inhibition at 0.1 µM
CCCCCn1c(-c2cnc(Nc3ccc(C)nc3)c(Cl)c2)nc2ccccc21 [Example 19, [3-Chloro-5-(1-pentyl-1H-benzoimidazol-2-yl)-pyridin-2-yl]-(6-methyl-pyridin-3-yl)-amine] | 57%
Cc1ccc(Nc2ncc(-c3nc4ccccc4n3CC(C)C)cc2Cl)cn1 [Example 20, [3-Chloro-5-(1-isobutyl-1H-benzoimidazol-2-yl)-pyridin-2-yl]-(6-methyl-pyridin-3-yl)-amine] | 98%
CCCn1c(-c2cnc(Nc3ccc(C)nc3)c(Cl)c2)nc2cc(C(F)(F)F)ccc21 [Example 21, [3-Chloro-5-(1-propyl-5-trifluoromethyl-1H-benzoimidazol-2-yl)-pyridin-2-yl]-(6-methyl-pyridin-3-yl)-amine] | 65%
CCCn1c(-c2cnc(Nc3ccc(C)nc3)c(Cl)c2)nc2ccc(C)c(C)c21 [Example 26, [3-Chloro-5-(6,7-dimethyl-1-propyl-1H-benzoimidazol-2-yl)-pyridin-2-yl]-(6-methyl-pyridin-3-yl)-amine] | 98%
CCCn1c(-c2cnc(Nc3ccc(C)nc3)c(Cl)c2)nc2c(C)ccc(C)c21 [Example 29, [3-Chloro-5-(4,7-dimethyl-1-propyl-1H-benzoimidazol-2-yl)-pyridin-2-yl]-(6-methyl-pyridin-3-yl)-amine] | 99%
Cc1ccc(Nc2ncc(-c3nc4cccc5c4n3CCC5)cc2Cl)cn1 [Example 31, [3-Chloro-5-(5,6-dihydro-4H-imidazo[4,5,1-ij]quinolin-2-yl)-pyridin-2-yl]-(6-methyl-pyridin-3-yl)-amine] | 90%
CCCn1c(-c2cnc(Nc3ccc(C)nc3)c(Cl)c2)nc2cc(Cl)ccc21 [Example 45, [3-Chloro-5-(5-chloro-1-propyl-1H-benzoimidazol-2-yl)-pyridin-2-yl]-(6-methyl-pyridin-3-yl)-amine] | 91%
CCCn1c(-c2cnc(Nc3ccc(C)nc3)c(Cl)c2)nc2c(Cl)cccc21 [Example 47, [3-Chloro-5-(4-chloro-1-propyl-1H-benzoimidazol-2-yl)-pyridin-2-yl]-(6-methyl-pyridin-3-yl)-amine] | 100%
CCCn1c(-c2cnc(Nc3ccc(C)nc3)c(Cl)c2)nc2cccc(Cl)c21 [Example 48, [3-Chloro-5-(7-chloro-1-propyl-1H-benzoimidazol-2-yl)-pyridin-2-yl]-(6-methyl-pyridin-3-yl)-amine] | 101%
CCCn1c(-c2cnc(Nc3ccccc3F)c(Cl)c2)nc2cccc(Cl)c21 [Example 53, [3-Chloro-5-(7-chloro-1-propyl-1H-benzoimidazol-2-yl)-pyridin-2-yl]-(2-fluoro-phenyl)-amine] | 95%
CCCn1c(-c2cnc(Nc3ccc(F)cc3)c(Cl)c2)nc2cccc(Cl)c21 [Example 54, [3-Chloro-5-(7-chloro-1-propyl-1H-benzoimidazol-2-yl)-pyridin-2-yl]-(4-fluoro-phenyl)-amine] | 97%
CCCn1c(-c2cnc(Nc3cccc(F)c3)c(Cl)c2)nc2cccc(Cl)c21 [Example 55, [3-Chloro-5-(7-chloro-1-propyl-1H-benzoimidazol-2-yl)-pyridin-2-yl]-(3-fluoro-phenyl)-amine] | 63%
CCCn1c(-c2cnc(Nc3ccc(F)c(F)c3)c(Cl)c2)nc2cccc(Cl)c21 [Example 57, [3-Chloro-5-(7-chloro-1-propyl-1H-benzoimidazol-2-yl)-pyridin-2-yl]-(3,4-difluoro-phenyl)-amine] | 93%
CCCn1c(-c2cnc(Nc3cccc(F)c3F)c(Cl)c2)nc2cccc(Cl)c21 [Example 58, [3-Chloro-5-(7-chloro-1-propyl-1H-benzoimidazol-2-yl)-pyridin-2-yl]-(2,3-difluoro-phenyl)-amine] | 40%
CCCn1c(-c2cnc(Nc3ccncc3)c(Cl)c2)nc2cccc(Cl)c21 [Example 59, [3-Chloro-5-(7-chloro-1-propyl-1H-benzoimidazol-2-yl)-pyridin-2-yl]-pyridin-4-yl-amine] | 51%
CCCn1c(-c2cnc(Nc3ccc(C)nn3)c(Cl)c2)nc2cccc(Cl)c21 [Example 60, [3-Chloro-5-(7-chloro-1-propyl-1H-benzoimidazol-2-yl)-pyridin-2-yl]-(6-methyl-pyridazin-3-yl)-amine] | 87%
CCCn1c(-c2cnc(Nc3cnc(C)cn3)c(Cl)c2)nc2cccc(Cl)c21 [Example 62, [3-Chloro-5-(7-chloro-1-propyl-1H-benzoimidazol-2-yl)-pyridin-2-yl]-(5-methyl-pyrazin-2-yl)-amine] | 99%
CCCn1c(-c2cnc(Nc3cnc4ccccc4c3)c(Cl)c2)nc2cccc(Cl)c21 [Example 63, [3-Chloro-5-(7-chloro-1-propyl-1H-benzoimidazol-2-yl)-pyridin-2-yl]-quinolin-3-yl-amine] | 28%

Other lines, results leading:

inhibition at 0.1 µM | SMILES
97% | CCCn1c(-c2cnc(Nc3ccc(C)nc3)c(Cl)c2)nc2cc(C)ccc21 [Example 22, [3-Chloro-5-(5-methyl-1-propyl-1H-benzoimidazol-2-yl)-pyridin-2-yl]-(6-methyl-pyridin-3-yl)-amine]
84% | CCCn1c(-c2cnc(Nc3ccc(C)nc3)c(Cl)c2)nc2ccc(C)cc21 [Example 23, [3-Chloro-5-(6-methyl-1-propyl-1H-benzoimidazol-2-yl)-pyridin-2-yl]-(6-methyl-pyridin-3-yl)-amine]
101% | CCCn1c(-c2cnc(Nc3ccc(C)nc3)c(Cl)c2)nc2cccc(C)c21 [Example 24, [3-Chloro-5-(7-methyl-1-propyl-1H-benzoimidazol-2-yl)-pyridin-2-yl]-(6-methyl-pyridin-3-yl)-amine]
97% | CCCn1c(-c2cnc(Nc3ccc(C)nc3)c(Cl)c2)nc2c(C)cccc21 [Example 25, [3-Chloro-5-(4-methyl-1-propyl-1H-benzoimidazol-2-yl)-pyridin-2-yl]-(6-methyl-pyridin-3-yl)-amine]
99% | CCCn1c(-c2cnc(Nc3ccc(C)nc3)c(Cl)c2)nc2cc(F)c(F)cc21 [Example 30, [3-Chloro-5-(5,6-difluoro-1-propyl-1H-benzoimidazol-2-yl)-pyridin-2-yl]-(6-methyl-pyridin-3-yl)-amine]
97% | CCCn1c(-c2cnc(Nc3ccc(C)nc3)c(Cl)c2)nc2cc(I)cc(Cl)c21 [Example 34b, [3-Chloro-5-(7-chloro-5-iodo-1-propyl-1H-benzoimidazol-2-yl)-pyridin-2-yl]-(6-methyl-pyridin-3-yl)-amine]
99% | CCCn1c(-c2cnc(Nc3ccc(Cl)cc3)c(Cl)c2)nc2cccc(Cl)c21 [Example 52, [3-Chloro-5-(7-chloro-1-propyl-1H-benzoimidazol-2-yl)-pyridin-2-yl]-(4-chloro-phenyl)-amine]
100% | CCCn1c(-c2cnc(Nc3ccc(C#N)cc3)c(Cl)c2)nc2cccc(Cl)c21 [Example 56, 4-[3-Chloro-5-(7-chloro-1-propyl-1H-benzoimidazol-2-yl)-pyridin-2-ylamino]-benzonitrile]
96% | CCCn1c(-c2cnc(Nc3ccc4nccnc4c3)c(Cl)c2)nc2cccc(Cl)c21 [Example 61, [3-Chloro-5-(7-chloro-1-propyl-1H-benzoimidazol-2-yl)-pyridin-2-yl]-quinoxalin-6-yl-amine]
